Experimental findings from patent publication US5672712A, “Thiazoline derivatives” (Taisho Pharmaceutical Co., Ltd., priority 1994, dated 1997) are described below.

In general, IC50 refers to the concentration that gives 50% inhibition. As usually defined, the solubility is the dissolved amount per volume that the medium holds. One may read the fraction remaining as the share of the starting amount still present when the sample was taken.

In data set [1] the target is T1, fibrinogen receptor (GpIIb/IIIa) on blood platelet (Homo sapiens, UniProt P05106+P08514).
T1 construct: fibrinogen-free blood platelet suspension; endogenous in cells; host or cells: human blood platelets (from citrated venous blood of a healthy donor, gel-filtered)
Description: Human Blood Platelet Fibrinogen Binding Test (125I labeled human fibrinogen, ADP 10 μM). To be noted: human platelet 125I-fibrinogen binding. As to the method:
Experiment 1 [Human Blood Platelet Fibrinogen Binding Test]
The test was carried out referring to the methods of G. A. Marguerie (J. Biol. Chem., vol. 254, pages. 5357-5363, 1979) and N. S. Nicholson (Thromb. Res., vol. 50, pages 567-578, 1991).
Citrated blood (the volume ratio of 3.13% sodium citrate solution and blood is 1:9) was collected from the cubital vein of a healthy human who had not received any drugs known to affect the function of blood platelet within 2 weeks prior to starting the test, and centrifuged at 120× g at room temperature for 15 minutes to give platelet rich plasma (PRP) as a supernatant.
To the above PRP was added one fifth volume of an ACD solution (citric acid/sodium citrate/dextrose), followed by centrifugation at 1200× g for 15 minutes. The precipitate was suspended in a Tyrode's solution ([…], 2 mM Mg^2+), followed by gel filtration using Sepharose 2B column to give a fibrinogen-free blood platelet suspension (1×10^9 /ml). The binding test was carried out by using the fibrinogen-free blood platelet suspension, the solutions of the compounds of Formula (I) in dimethyl sulfoxide which were each adjusted to the desired concentration by diluting with a physiological saline solution as test drugs, ADP (final concentration: 10 μM) and ^125 I labeled human fibrinogen, and then the binding inhibitory rate of the test drug was calculated.
N-(2-Carboxyethyl)-2-(4-amidinobenzoylimino)-3,4-dimethyl-3H-thiazoline-5-carboxamide hydrobromide (described in WO 94/02472; referred to as "Comparative drug" in the following experiments) was used as a comparative drug. The drug solution was prepared in the same manner as described above, and tested as described above.
The results are shown in Table 1 in which the compound numbers are the same as defined in the following examples and are also used in the following experiments.

The subject of data set [2] is blood platelet aggregation. Description: Human in vitro Blood Platelet Aggregation Inhibition Test (ADP-induced, PRP). The format is cell-based. To be noted: ADP 7 μM, 37° C., 50% inhibition of maximum aggregation. As to the method: Experiment 2 [Human in vitro Blood Platelet Aggregation Inhibition Test]
Citrated blood (the volume ratio of 3.13% sodium citrate solution and blood is 1:9) was collected from the cubital vein of a healthy human who had not received any drugs known to affect the function of blood platelet within 2 weeks prior to starting the test, and centrifuged at 120× g at room temperature for 15 minutes to give platelet rich plasma (PRP) as a supernatant. The remaining precipitate was further centrifuged at 1500× g for 10 minutes to give platelet poor plasma (PPP) as a supernatant. The blood platelet counts of PRP were adjusted to 50~60×10^4 /μl by diluting with PPP.
Blood platelet aggregation was monitored according to the method of Born G. V. R., [Nature, vol. 194, page 927 (1962)] using adenosine diphosphate (produced by Sigma Co.; hereinafter referred to as "ADP") as an aggregation-inducing substance. That is, a solution of the compound of Formula (I) as a test drug in dimethyl sulfoxide was adjusted to the desired concentration with a physiological saline solution. 25 μl of the solution was added to 250 μl of PRP and incubated at 37° C. for 3 minutes, and 25 μl of ADP (final concentration: 7 μM) was added thereto. […]

The nature of data set [3]: Solubility Test (0.1M phosphate buffer, pH 7). Type of data set: physicochemical. To be noted: aqueous buffer, 0.1M phosphate buffer pH 7, 25° C. As to the method:
Experiment 3 [Solubility Test]
Solubility test was carried out referring to the method of S. Miyazaki et al. [Chem. Pharm. Bull., vol. 23, page 1197 (1975)].
9.511 g of disodium hydrogenphosphate weighed accurately was dissolved in 800 ml of water. The solution was adjusted to pH 7.0 by adding sodium dihydrogenphosphate, and the total volume of the solution was made exactly 1000 ml to give a 0.1M phosphate buffer (pH 7). To 1.0 ml of the buffer solution measured exactly was added an excess amount for the solubility limit of the test drug. The suspension was treated by supersonic waves for 5 minutes and stirred on a water bath at 25° C. for 24 hours. After removal of the insoluble substance by using a membrane filter (0.22 μm), the filtrate was appropriately diluted to give a test solution. Separately, 1 mg of the test drug weighed accurately was dissolved in the eluate to make exactly 100 ml to give a standard solution. The test solution and the standard solution were quantified by high performance liquid chromatography method under the following procedure conditions, and the solubility of the test drug was calculated.
Detection instrument: Ultraviolet spectrophotometer (Detection wave length: 246 nm)
(§1) Column: ODS column 4.6.phi.×150 mm (TSK Gel ODS 80TM)
Column temperature: A definite temperature in the vicinity of 50° C. […]

Data set [4] can be described thus: Stability Test (pH 7 phosphate buffer, 80° C.). Type of data set: physicochemical. To be noted: 20 mg in 1000 ml; for remaining at 4 h: After 4 hours; for remaining at 4 h / remaining at 8 h / remaining at 24 h: read-out: Remaining rate of Test drug; for remaining at 8 h: After 8 hours; for remaining at 24 h: After 24 hours; for Remaining rate of Test drug: Immediately after. As to the method: Experiment 4 [Stability Test]
Stability test was carried out referring to the method of A. K. Amirjahed et al [J. Pharm. Sci., vol. 66, page 785 (1977)].
20 mg of Compound 8 obtained in the following example and 20 mg of Comparative drug, each weighed accurately, were each dissolved in 0.1N phosphate buffer (a buffer of a suitable amount of 0.1M potassium dihydrogenphosphate mixed with a suitable amount of 0.1M disodium hydrogenphosphate to adjust to pH 7) to make exactly 1000 ml to give standard solutions, respectively. The solution was dispensed into ampules, and they were stored at 80° C. for 4 hours, 8 hours and 24 hours to prepare test solutions.
20 μl of the test solution and 20 μl of the standard solution were each quantified by high performance liquid chromatography method under the following procedure conditions, and the peak areas of Compound 8 and Comparative drug at the storage times were determined, and the remaining rate was calculated by using the following formula, and the results are shown in Table 4.
Detection instrument: Ultraviolet spectrophotometer (Detection wave length: 247 nm)
as §1
Column temperature: A definite temperature in the vicinity of 50° C.
[Compound 8] 1 ml of phosphoric acid and 5 g of sodium dodecylsulfate (SDS) are added to 1000 ml of a mixture of water and acetonitrile (65:35).
[Comparative drug] 1 ml of phosphoric acid and 3 g of sodium dodecylsulfate (SDS) are added to 1000 ml of a mixture of water and acetonitrile (60:40).
Formula: Remaining rate (%)= [formula]

Values after ≈ are worked out from the molar mass of the structure shown. Structures can show the parent of a compound that is named as a salt.

T1 sequence (P08514 32-887 limits assumed): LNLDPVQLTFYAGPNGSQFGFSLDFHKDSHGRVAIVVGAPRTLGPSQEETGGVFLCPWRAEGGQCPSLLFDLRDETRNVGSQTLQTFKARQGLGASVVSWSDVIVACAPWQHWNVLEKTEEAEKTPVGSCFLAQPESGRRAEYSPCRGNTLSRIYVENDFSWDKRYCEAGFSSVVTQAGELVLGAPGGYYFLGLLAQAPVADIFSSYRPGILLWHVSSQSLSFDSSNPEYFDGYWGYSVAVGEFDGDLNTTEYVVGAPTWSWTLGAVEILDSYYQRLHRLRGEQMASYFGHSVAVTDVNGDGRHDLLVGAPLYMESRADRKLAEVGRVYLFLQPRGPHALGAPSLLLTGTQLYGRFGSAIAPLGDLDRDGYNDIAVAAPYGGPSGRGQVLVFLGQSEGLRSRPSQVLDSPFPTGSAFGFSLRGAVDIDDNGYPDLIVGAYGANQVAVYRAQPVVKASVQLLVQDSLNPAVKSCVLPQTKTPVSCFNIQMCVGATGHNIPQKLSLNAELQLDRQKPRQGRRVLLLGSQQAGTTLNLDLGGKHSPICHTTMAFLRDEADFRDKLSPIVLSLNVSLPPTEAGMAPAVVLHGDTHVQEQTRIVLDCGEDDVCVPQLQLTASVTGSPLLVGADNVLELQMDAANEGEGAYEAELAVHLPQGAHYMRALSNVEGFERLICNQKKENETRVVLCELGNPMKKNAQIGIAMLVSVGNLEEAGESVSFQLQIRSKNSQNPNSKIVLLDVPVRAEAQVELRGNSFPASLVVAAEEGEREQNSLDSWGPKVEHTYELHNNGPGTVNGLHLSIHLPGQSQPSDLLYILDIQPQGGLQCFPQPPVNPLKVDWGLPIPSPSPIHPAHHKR
T1 sequence (P08514 891-1039 partner limits assumed): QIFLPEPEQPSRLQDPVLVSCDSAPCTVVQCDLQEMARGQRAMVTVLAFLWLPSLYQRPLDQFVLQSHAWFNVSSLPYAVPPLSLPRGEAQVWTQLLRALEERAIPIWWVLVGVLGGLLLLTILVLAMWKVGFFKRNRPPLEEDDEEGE
T1 sequence (P05106 27-788): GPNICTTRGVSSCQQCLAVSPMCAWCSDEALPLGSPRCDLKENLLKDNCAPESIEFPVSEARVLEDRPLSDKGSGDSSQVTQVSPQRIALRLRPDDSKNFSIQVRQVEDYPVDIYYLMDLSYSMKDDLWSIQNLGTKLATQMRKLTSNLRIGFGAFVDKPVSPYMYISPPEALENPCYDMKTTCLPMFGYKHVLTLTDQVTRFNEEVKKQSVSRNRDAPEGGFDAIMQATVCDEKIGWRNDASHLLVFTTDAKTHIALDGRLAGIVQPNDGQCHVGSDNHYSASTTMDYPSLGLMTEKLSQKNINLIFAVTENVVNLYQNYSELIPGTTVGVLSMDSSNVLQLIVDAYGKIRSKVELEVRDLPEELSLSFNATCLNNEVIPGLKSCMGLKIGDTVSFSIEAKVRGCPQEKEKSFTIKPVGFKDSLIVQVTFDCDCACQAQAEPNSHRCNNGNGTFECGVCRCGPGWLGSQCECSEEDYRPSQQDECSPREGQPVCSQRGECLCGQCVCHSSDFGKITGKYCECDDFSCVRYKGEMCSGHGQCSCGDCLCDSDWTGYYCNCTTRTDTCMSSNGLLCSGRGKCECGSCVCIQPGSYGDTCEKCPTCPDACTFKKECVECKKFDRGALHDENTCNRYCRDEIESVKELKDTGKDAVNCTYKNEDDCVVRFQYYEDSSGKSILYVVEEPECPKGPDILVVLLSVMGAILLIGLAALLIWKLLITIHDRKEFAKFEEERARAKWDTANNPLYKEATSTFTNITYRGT

Regarding `Cc1c(C(=O)NCCC(=O)O)sc(=NC(=O)c2ccc(C(=N)NCCCC(=O)OC3CCCCC3)cc2)n1C1CC1` [Compound 49, N-(2-carboxyethyl)-2-{4-[N-(3-cyclohexyloxycarbonylpropyl)amidino]benzoylimino}-3-cyclopropyl-4-methyl-3H-thiazoline-5-carboxamide], in data set [1], the half-maximal inhibitory concentration (IC50) worked out at 7.2 nM.
As for `Cc1c(C(=O)NCCC(=O)O)sc(=NC(=O)c2ccc(C(=N)N)cc2)n1C` [Comparative drug, N-(2-Carboxyethyl)-2-(4-amidinobenzoylimino)-3,4-dimethyl-3H-thiazoline-5-carboxamide hydrobromide, reference compound], the 50% inhibitory concentration (IC50) in data set [1] was determined as 5 nM. In addition, in data set [2], the 50% inhibitory concentration (IC50) is 17 nM. This compound yielded a solubility at 24 h in data set [3] of 0.03 mg/mL. Moreover, in data set [4], the share remaining at 4 h is 82.2%, the fraction remaining at 8 h is 68.4%, the share remaining at 24 h was determined as 32.3% and the “Remaining rate of Test drug” value is on record as 100%.
Turning to `Cc1c(C(=O)NCCC(=O)O)sc(=NC(=O)c2ccc(C(=N)NCCCC(=O)NC3CCCCC3)cc2)n1C` [Compound 12, N-(2-carboxyethyl)-2-{4-[N-(3-cyclohexylaminocarbonylpropyl)amidino]benzoylimino}-3,4-dimethyl-3H-thiazoline-5-carboxamide], the half-inhibitory concentration (IC50) in data set [1] is 4.7 nM.
For `Cc1c(C(=O)NCCC(=O)O)sc(=NC(=O)c2ccc(C(=N)NCCCC(=O)OC3CCCCC3)cc2)n1C` [Compound 11, N-(2-carboxyethyl)-2-{4-[N-(3-cyclohexyloxycarbonylpropyl)amidino]benzoylimino}-3,4-dimethyl-3H-thiazoline-5-carboxamide], in data set [1], the IC50 turned out to be 8.2 nM.
On the same count and under the same terms, next, `Cc1c(C(=O)NCCC(=O)O)sc(=NC(=O)c2ccc(C(=N)NCCCC(=O)OC3CCCCC3)cc2)n1C1CCC1` [Compound 56, N-(2-carboxyethyl)-2-{4-[N-(3-cyclohexyloxycarbonylpropyl)amidino]benzoylimino}-3-cyclobutyl-4-methyl-3H-thiazoline-5-carboxamide]: 11.1 nM; `Cc1c(C(=O)NCCC(=O)O)sc(=NC(=O)c2ccc(C(=N)NCCCC(=O)OC3CCCCC3)cc2)n1C(C)C` [Compound 17, N-(2-carboxyethyl)-2-{4-[N-(3-cyclohexyloxycarbonylpropyl)amidino]benzoylimino}-3-isopropyl-4-methyl-3H-thiazoline-5-carboxamide]: 12.6 nM.
The same measure, in the same setting: next, `Cc1c(C(=O)NCCC(=O)O)sc(=NC(=O)c2ccc(C(=N)NCCCCCC(=O)Nc3ccccc3)cc2)n1C1CC1` [Compound 51, N-(2-carboxyethyl)-2-{4-[N-(5-phenylaminocarbonylpentyl)amidino]benzoylimino}-3-cyclopropyl-4-methyl-3H-thiazoline-5-carboxamide]: 8.6 nM.
Turning to `Cc1c(C(=O)NCCC(=O)O)sc(=NC(=O)c2ccc(C(=N)NCCCC(=O)O)cc2)n1C` [Compound 8, N-(2-carboxyethyl)-2-{4-[N-(3-carboxypropyl)amidino]benzoylimino}-3,4-dimethyl-3H-thiazoline-5-carboxamide], the IC50 in data set [1] came to 25.6 nM. Further, half-maximal inhibition in data set [2] (IC50) was put at 39 nM. In addition, the solubility at 24 h in data set [3] turned out to be 20 mg/mL (≈ 42.1 mM). In addition, in data set [4], the amount remaining at 4 h was 97.8%, the share remaining at 8 h stood at 95.7%, the fraction remaining at 24 h is 88.9% and the “Remaining rate of Test drug” value is 100%.
In data set [1], `Cc1c(C(=O)NCCC(=O)O)sc(=NC(=O)c2ccc(C(=N)NCCC(=O)O)cc2)n1C` [Compound 9, N-(2-carboxyethyl)-2-{4-[N-(2-carboxyethyl)amidino]-benzoylimino}-3,4-dimethyl-3H-thiazoline-5-carboxamide] gave an IC50 of 16.5 nM.
